# Measurements published in US20140120083A1, “TREATMENT OF CANCERS USING PI3 KINASE ISOFORM MODULATORS” (INFINITY PHARMACEUTICALS, INC., priority 2012, published 2014).
# Columns and labels:
# [1] = Phase 1 study in advanced hematologic malignancies, pharmacokinetics; format: in vivo, human; conditions: patients
# Description: PK and PD markers were evaluated after the first dose (e.g., 8 mg BID) and at steady state. PD activity (PI3K inhibition) in whole blood was evaluated using a basophil activation assay which measured reduction in CD63 expression on the surface of basophils following ex vivo stimulation.
# Pharmacokinetics, monkey = format: in vivo, Cynomolgus monkeys
# [2] = 13-week repeat-dose safety study, monkey
# [3] = Plasma protein binding, monkey; format: in vitro ADME; conditions: 100 μM (41700 ng/mL)
# From the text: […]. […] […].
# [4] = test system: TNF-α and IL-10 production; assay: Cytokine production in diluted whole blood stimulated with LPS; format: cell-based; conditions: diluted whole blood (1:1), 24 hours pre-treatment, 100 μg/mL LPS
# Description: Serum concentrations of a panel of human cytokines/chemokines were determined by Milliplex 96-well immuno-assay as described below.
# respiratory system = assay: Respiratory study (plethysmography); conditions: male rats, single oral dose up to 350 mg/kg
# [5] = Single-dose toxicity study (MTD); conditions: monkey, in vivo, po
# [6] = Phase 1 study in advanced hematologic malignancies, safety
structure (smiles),measurement,setting,value
C[C@H](Nc1ncnc2[nH]cnc12)c1cc2cccc(Cl)c2c(=O)n1-c1ccccc1 [Compound 292],half-life,"[1]; human, in vivo, oral, read-out: eliminating t1/2",6 to 10 h
same,doses with mean steady-state trough above levels sufficient for PI3K-δ inhibition,[1],> 15 mg BID
same,plasma Cmax and AUC over the dose range,[1]; 8-50 mg BID,dose-proportional increases
same,PK profile,[1]; through 50 mg BID,linear
same,clearance,"Pharmacokinetics, monkey; monkey",low to moderate
same,volume of distribution,"Pharmacokinetics, monkey; monkey",high
same,AUC0-last,"Pharmacokinetics, monkey; monkey, IV, 1 mg/kg",2357 ng·h/mL
same,AUC(0-inf),"Pharmacokinetics, monkey; monkey, IV, 1 mg/kg",2379 ng·h/mL
same,Cl,"Pharmacokinetics, monkey; monkey, IV, 1 mg/kg",7.17 mL/min/kg
same,Cmax,"Pharmacokinetics, monkey; monkey, IV, 1 mg/kg",1545 ng/mL
same,T1/2,"Pharmacokinetics, monkey; monkey, IV, 1 mg/kg",5.0 h
same,Tmax,"Pharmacokinetics, monkey; monkey, IV, 1 mg/kg",0.083 h
same,Vss,"Pharmacokinetics, monkey; monkey, IV, 1 mg/kg",1.27 L/kg
same,AUC0-last,"Pharmacokinetics, monkey; monkey, PO, 5 mg/kg",4596 ng·h/mL
same,AUC(0-inf),"Pharmacokinetics, monkey; monkey, PO, 5 mg/kg",4685 ng·h/mL
same,Cmax,"Pharmacokinetics, monkey; monkey, PO, 5 mg/kg",1327 ng/mL
same,Foral,"Pharmacokinetics, monkey; monkey, PO, 5 mg/kg",40%
same,T1/2,"Pharmacokinetics, monkey; monkey, PO, 5 mg/kg",5.4 h
same,Tmax,"Pharmacokinetics, monkey; monkey, PO, 5 mg/kg",1.5 h
same,half-life,"Pharmacokinetics, monkey; monkeys",5 h
same,NOAEL,"[2]; 13-week monkey study, oral gavage",60 mg/m^2/day
same,NOAEL at 13 weeks,"[2]; both, cynomolgus monkey, in vivo, po",5 mg/kg/day
same,mean AUC0-24 hr at the NOAEL,"[2]; monkey, Day 91, combined sexes",4015 ng·h/mL
same,protein bound,[3],76.8%
same,IL-10 production,[4],inhibition
same,TNF-α production,[4],inhibition
same,"respiratory parameters (respiratory rate, tidal volume, minute volume)",respiratory system,no Compound 292-related effects
same,MTD,[5],500 mg/kg
same,dose limiting toxicity,[6]; 15 mg BID dose cohort,Grade 4 neutropenia
same,AE Leading to Discontinuation,[6]; 25 mg BID (n = 34),2 n
same,Any AE,[6]; 25 mg BID (n = 34),27 n
same,Any AE Grade 3,[6]; 25 mg BID (n = 34),7 n
same,Any AE Grade 4,[6]; 25 mg BID (n = 34),5 n
same,Deaths on Study,[6]; 25 mg BID (n = 34),0 n
same,Dose Reduced (New Grade 3/4 ALT),[6]; 25 mg BID (n = 34),3 n
same,Dose Reduced (New Grade 3/4 ANC),[6]; 25 mg BID (n = 34),2 n
same,New Grade 3 ALT,[6]; 25 mg BID (n = 34),3 n
same,New Grade 3 ANC,[6]; 25 mg BID (n = 34),2 n
same,New Grade 4 ANC,[6]; 25 mg BID (n = 34),4 n
same,Related AE,[6]; 25 mg BID (n = 34),18 n
same,Related Grade 3 AE,[6]; 25 mg BID (n = 34),4/4 n
same,Related Grade 4 AE,[6]; 25 mg BID (n = 34),4/4 n
same,SAE,[6]; 25 mg BID (n = 34),4 n
same,dose limiting toxicity,[6]; 75 mg BID,Grade 3 cellulitis
same,"new Grade>3 neutropenia, n (%)","[6]; 20 patients, 8-50 mg BID",6 (30%)
same,"new Grade>3 thrombocytopenia, n (%)","[6]; 20 patients, 8-50 mg BID",1 (5%)
same,patients with AEs Grade>3,"[6]; 20 patients, 8-50 mg BID",7 (35%)
same,patients with adverse events,"[6]; 20 patients, 8-50 mg BID",13 (65%)
same,patients with treatment-related AEs,"[6]; 20 patients, 8-50 mg BID",11 patients
same,patients with treatment-related AEs Grade>3,"[6]; 20 patients, 8-50 mg BID",5 patients
same,"Grade 3 ALT/AST elevations, n (%)","[6]; 20 patients, 8-50 mg BID, MM patient",1 (5%)
same,AE Leading to Discontinuation,[6]; Safety Population (n = 55),3 n
same,Any AE,[6]; Safety Population (n = 55),46 n
same,Any AE Grade 3,[6]; Safety Population (n = 55),18 n
same,Any AE Grade 4,[6]; Safety Population (n = 55),8 n
same,Deaths on Study,[6]; Safety Population (n = 55),3 n
same,Dose Reduced (New Grade 3/4 ALT),[6]; Safety Population (n = 55),6 n
same,Dose Reduced (New Grade 3/4 ANC),[6]; Safety Population (n = 55),5 n
same,New Grade 3 ALT,[6]; Safety Population (n = 55),5 n
same,New Grade 3 ANC,[6]; Safety Population (n = 55),10 n
